Where two headings read alike, the source gives them in different places.
Tests used:
Tet^R E. coli [1] = assay: MIC, CLSI/NCCLS broth microdilution; format: cell-based, Escherichia coli; settings: 24 h; for Minimal Inhibitory Concentration (MIC) E. coli Tet^R: >80% growth inhibition, 37° C., substance alone; for MIC: Escherichia coli, read-out: Minimal Inhibitory Concentration (MIC) E. coli Tet^R
Method: (§1) Two different strains of E. coli (Gram-negative) were used. The laboratory strain of E. coli, K-12 (ATCC Accession No. 700926), was used for preliminary MIC determinations. The tetracycline resistant strain of E. coli (Tet^R) was prepared by transforming competent JM109 E. coli (Promega) with the pBR322 plasmid (Carolina Biologicals) using the manufacturers protocol. This plasmid contains two resistance genes: the tetA gene expresses the tetracycline resistance TetA efflux pump (Sapunaric and Levy, Microbiol. 2005, 151, 2315-2322) and the amp^R gene expresses a β-lactamase enzyme (Bolivar, et al; Gene 1977, 2, 95-113) that cleaves the four membered ring of penicillin derivatives. The resulting E. coli, which we designate Tet^R E. coli, is both tetracycline and ampicillin resistant. The TetA efflux pump belongs to the major facilitator superfamily (MFS), spans the cytoplasmic membrane, and transports tetracycline from the cell cytoplasm to the periplasmic space (Thanassi, et al., J. Bacteriol. 1995, 177, 998-1007). This active efflux utilizes the proton gradient as an energy source (Levy, Antimicrob. Agents Chemother. 1992, 36, 695-703). One Gram-positive strain, S. aureus (ATCC Accession No. 29213), used for MIC study expresses the MFS type NorA efflux pump and is methicillin sensitive. MFS type efflux pumps are clinically relevant for resistance in both Gram-positive and Gram-negative bacteria (Sun, et al., Biochem. Biophys. Res. Commun. 2014, 453, 254-267). A Staphylococcus aureus 1199B strain that overexpresses the NorA efflux pump was also used to conduct checkerboard experiments (see, Example 8 below). This strain of S. aureus 1199B is resistant to both norfloxacin and ethidium bromide.
(§2) K-12 E. coli and S. aureus were acquired from ATCC. The S. aureus strain was used in the BSL-2 facility. K-12 E. coli was grown in L. B. Miller media (Sigma-Aldrich) and S. aureus was grown in cation adjusted MHII media (Sigma-Aldrich). Tet^R E. coli was grown in L. B. Miller media containing 100 μg/mL Ampicillin.
(§3) MIC experiments were performed as described in the Clinical and Laboratory Standards Institute (CLSI) standard microdilution protocols. Bacteria was grown overnight from one CFU in media without antibiotics. Tet^R E. coli was grown in media containing 100 μg/mL Ampicillin. On the day of experiment, bacteria were knocked back to O.D. 600 nm=0.550 in the same media. These exponential phase bacteria were then diluted in antibiotics-free media to get […]. In a 96-well plate either L. B. Miller or MHII media was added followed by serially diluted compounds 1-11, tetracycline, or ampicillin. All the tryptophan based compounds were dissolved in DMSO and the final concentration of DMSO in each well was kept constant at 0.5% (v/v).
(§4) For the combination experiments, first, the BT or control was added to the media in the well followed by the antibiotics. The contents of the well were mixed before adding 20 μL of bacteria to get 4×10^5 CFU/mL per well. The plates were incubated at 37° C., 200 RPM for 24 hours before collecting results on the Biotek Cytation 3 plate reader. No more than three plates were stacked on top of each other at a time. Optical density of the wells was determined at λ=600 nm. Cells alone were considered as 0% inhibition and media alone was considered as 100% inhibition. Any inhibition greater than 80% was considered as the MIC. The results were reproduced three times before reporting.
(§5) All minimum inhibitory concentration (MIC) values for compounds 1-11 were determined according to the methods prescribed by the National Committee for Clinical Laboratory Standards (NCCLS, Methods for Dilution Antimicrobial Susceptibility Tests for Bacteria that grow aerobically; National Committee for Clinical Laboratory Standards 2000, 5th Edition, M7-A5). […]

E. coli K12 = assay: MIC, CLSI/NCCLS broth microdilution; format: cell-based, Escherichia coli; settings: read-out: Minimal Inhibitory Concentration (MIC) E. coli K12
Method: as §1, §2, §3, §4, §5

[2] = test system: S. aureus (ATCC Accession No. 29213); assay: MIC, CLSI/NCCLS broth microdilution; format: cell-based, Staphylococcus aureus; settings: read-out: Minimal Inhibitory Concentration (MIC) S. aureus
Method: as §1, §2, §3, §4, §5

Tet^R E. coli [3] = assay: Membrane permeability and viability, confocal microscopy (propidium iodide / fluorescein diacetate); format: cell-based, Escherichia coli; settings: 0.1% (~1,670 μM) control detergent
Method: To test the membrane permeability of the Tet^R E. coli, the bacteria was first grown overnight from one CFU in media containing 100 μg/mL Ampicillin at 37° C. and 200 RPM. Tet^R E. coli was then knocked back to O.D. 600 nm=0.550 before use. In a sterile test tube, cells were added followed by either compounds 2 or 10 at half-MIC concentrations and incubated at 37° C. and 200 RPM. The concentration of DMSO was kept constant at 0.5% —by volume in each case. After 30 minutes of incubation, the cells were washed by centrifugation at 3000×g for 5 minutes and re-suspended in sterile phosphate buffered saline (PBS). Propidium iodide (30 μM, Thermo-Fischer) and fluorescein diacetate (60 μM, Sigma-Aldrich) were added to the Tet^R E. coli cells in the PBS, mixed by vortexing and incubated at 37° C. and 200 RPM. After 30 minutes, the cells were washed again by centrifugation at 3000×g for 5 minutes. The pellet was suspended in a fresh PBS, loaded onto a clean glass slide, covered with a cover slip and observed under Zeiss LSM 700 confocal microscope.
The study was designed to assess the membrane permeability and viability of the E. coli in the presence of BTs 2 and 10. The three panels in FIG. 6 show the bright field (BF) microscopic images (top row), the result when fluorescein diacetate (FDA) is present (middle row), and the presence of propidium iodide (PI, bottom row), if any. […] When it does, it intercalates in DNA, which leads to enhanced fluorescence. Fluorescein diacetate is incorporated into the cells during growth, but is not fluorescent. If the organism is or remains vital, the diester will be hydrolyzed and fluorescein will be observed by its fluorescence emission.
Controls for the permeability/viability assay were included for E. coli in the presence of a final concentration of 0.5% (v/v) DMSO (the vehicle for administration of BTs), and a final concentration of 0.1% […] Triton X-100. […] Thus, less than or equal to 0.5% DMSO (v/v) was always used; the control is shown in the second column. Triton X-100 is a potent detergent, which was used at 0.1% or ˜1,670 μM.

HEK-293 cells = assay: Mammalian cell permeability and vitality, confocal microscopy (propidium iodide / fluorescein diacetate); format: cell-based, human
Method: To test the permeability of HEK-293 cells, the cells were cultured in growth medium as described above. HEK-293 (90% confluent) were then seeded in a 96-well plate to get 30,000 cells/well. After 24 hours of incubation at 37° C. and 5% CO2, the spent media was replaced with media (DMEM and 10% FBS) containing compound 2 at either 20 μM or 80 μM. […] Triton X-100 at 0.1%—by volume (1670 μM) and DMSO 0.5% (v/v) were also used as controls. After 2 hours of incubation, spent media was replaced with PBS containing propidium iodide (30 μM) and fluorescein diacetate (60 μM) and incubated at 37° C. and 5% CO2. After 2 hour of incubation, the spend media was replaced with fresh PBS and the cells were observed under Zeiss LSM 700 confocal microscope. The images were reported without any alterations. The gain and the intensity in all the images were kept constant.
A compound that inhibits bacterial growth and penetrates into the microbe's cytosol may also penetrate into mammalian cells. A similar microscopic study was conducted with the human embryonic kidney (HEK-293) cell line. In this case, only compound 2 was studied. […] The microscopic study was therefore conducted at 20 μM, a value well below any inhibitory concentration, and at 80 μM, a concentration above all three MIC values. The 80 μM concentration was used to confirm the […] of 2 and to establish the lack of serum inhibition.

[4] = >80% growth inhibition, 24 h, 37° C.
[5] = Staphylococcus aureus, ATCC29213, 24 h

Row | Compound | melting point | Minimal Inhibitory Concentration (MIC) E. coli Tet^R (Tet^R E. coli [1]) [µM] | MIC (Tet^R E. coli [1]) [µM] | MIC (E. coli K12; [4]) [µM] | MIC (E. coli K12; Escherichia coli, K12, 24 h) [µM] | MIC [2, 4] [µM] | MIC [2, 5] [µM] | viability (fluorescein diacetate fluorescence) (Tet^R E. coli [3]) | propidium iodide penetration (membrane permeability) (HEK-293 cells) | MIC (E. coli K12; Escherichia coli, K12, >80% growth inhibition, 24 h, 37° C.) [µM]
1 | Cl.Cl.NCC(=O)Nc1cccc(NC(=O)CN)c1 [Compound 1, 2,2′-(1,3-Phenylenebis(azanediyl))bis(2-oxoethanaminium) chloride] | 310 °C (dec.) | >128 | > 128 | >128 | > 128 | >128 | > 128 |  |  | 
2 | CC1(C)S[C@@H]2[C@H](NC(=O)[C@H](N)c3ccccc3)C(=O)N2[C@H]1C(=O)O [ampicillin, reference compound] |  |  | > 1000 |  |  |  |  |  |  | 
3 | Cl.Cl.N[C@@H](Cc1c[nH]c2ccccc12)C(=O)NCCCCCCNC(=O)[C@@H](N)Cc1c[nH]c2ccccc12 [Compound 9, (2S,2′S)-1,1′-(Hexane-1,6-diylbis(azanediyl))bis(3-(1H-indol-3-yl)-1-oxopropan-2-aminium) chloride] | 193 °C (dec.) |  | 128 |  | > 128 |  | > 128 |  |  | 
4 | Cl.N[C@@H](Cc1c[nH]c2ccccc12)C(=O)Nc1ccccc1 [Compound 11, (S)-3-(1H-Indol-3-yl)-1-oxo-1-(phenylamino)propan-2-aminium chloride] |  | >128 | > 128 | >128 | > 128 | >128 | > 128 |  |  | 
5 | Cl.Cl.N[C@H](Cc1c[nH]c2ccccc12)C(=O)NCCCCNC(=O)[C@@H](N)Cc1c[nH]c2ccccc12 [Compound 8, (S)-1-((4-((R)-2-Ammonio-3-(1H-indol-3-yl)propanamido)butyl)amino)-3-(1H-indol-3-yl)-1-oxopropan-2-aminium chloride] | 204 °C (dec.) |  | > 128 |  | > 128 |  | > 128 |  |  | 
6 | Triton X-100 [reference compound] |  |  |  |  |  |  |  | essentially all the cells were killed | strong signal from propidium iodide | 
7 | O=C(CCc1c[nH]c2ccccc12)Nc1cccc(NC(=O)CCc2c[nH]c3ccccc23)c1 [Compound 4, N,N′-(1,3-Phenylene)bis(3-(1H-indol-3-yl)propanamide)] | 154 to 156 °C |  | > 128 |  | > 128 |  | > 128 |  |  | 
8 | CN(C)[C@@H]1C(O)=C(C(N)=O)C(=O)[C@@]2(O)C(O)=C3C(=O)c4c(O)cccc4[C@@](C)(O)[C@H]3C[C@@H]12 [tetracycline, reference compound] |  | 900 | 900 ± 100 |  |  |  |  |  |  | ~3

From patent US11213512B2, “Bis-amino acid based compound and use thereof” (THE CURATORS OF THE UNIVERSITY OF MISSOURI, priority 2016, dated 2022)
